Results taken from paper PMC6278306, “Anti-Leishmanial and Cytotoxic Activities of a Series of Maleimides: Synthesis, Biological Evaluation and Structure-Activity Relationship” (Molecules, 2018).
Converted amounts (≈) assume the structure as drawn.

How the values were obtained:
[1] = tested on: L. donovani promastigotes; assay: In vitro anti-leishmanial assay (Alamar blue, promastigotes); format: cell-based, Leishmania donovani; settings: for IC50: Leishmania donovani, 48 h, read-out: L. donvani IC50; for SI: SI = CC50 /IC50, THP1 vs promastigotes
Method: Anti-leishmanial activity in vitro was described in terms of IC50, which is the effective concentration (μg/mL) required to achieve 50% growth inhibition, with promastigotes in their exponential growth phase.
In vitro anti-leishmanial assay. The antileishmanial activity of the compounds was tested in vitro against a culture of L. donovani promastigotes. The promastigotes were grown in RPMI 1640 medium supplemented with 10% fetal calf serum (Gibco Chem. Co., 81 Wyman Street, Waltham, MA, USA) at 26 °C. A three day old culture was diluted to 5 × 10^5 promastigotes/mL. Drug dilutions were prepared directly in cell suspension in 96-well plates. Plates were incubated at 26 °C for 48 h and the growth of Leishmania promastigotes was determined by the Alamar blue assay as described earlier. Standard fluorescence was measured on a Fluostar Galaxy plate reader (BMG Lab Technologies, Offenburg, Germany) at an excitation wavelength of 544 nm and an emission wavelength of 590 nm. […] IC50 values were computed from dose-response curves as above. The tested compounds were diluted with six concentrations (from 40–0.0128 μg/mL). Cytotoxicity assay. The in vitro cytotoxicity was determined against human monocytic leukemia cells (THP1) with a simple colorimetric method using the dye Alamar Blue. […] Cells were grown to a density between 0.2 and 1 × 10^6 cells/mL. Culture medium was replaced every 2–3 days with fresh growth medium. DMSO was used as the solvent, and the test compounds was with six concentrations from 10–0.0032 μg/mL.

[2] = Cytotoxicity assay (Alamar Blue); format: cell-based; settings: human, THP1 cells (human monocytic leukemia), concentrations 10–0.0032 μg/mL
Method: In order to verify the safety of maleimides, they were tested for cytotoxicity against human monocytic leukemia cells (THP1) 50% cytotoxic concentration values represent the concentration of compound required to kill 50% of the THP1 cells were calculated (CC50). The selectivity indices were calculated using the formula SI = CC50 /IC50, against promastigotes. […] SIs of 16 and 42 were greater than 781.3.
In vitro anti-leishmanial assay. The antileishmanial activity of the compounds was tested in vitro against a culture of L. donovani promastigotes. The promastigotes were grown in RPMI 1640 medium supplemented with 10% fetal calf serum (Gibco Chem. Co., 81 Wyman Street, Waltham, MA, USA) at 26 °C. A three day old culture was diluted to 5 × 10^5 promastigotes/mL. Drug dilutions were prepared directly in cell suspension in 96-well plates. Plates were incubated at 26 °C for 48 h and the growth of Leishmania promastigotes was determined by the Alamar blue assay as described earlier. Standard fluorescence was measured on a Fluostar Galaxy plate reader (BMG Lab Technologies, Offenburg, Germany) at an excitation wavelength of 544 nm and an emission wavelength of 590 nm. Pentamidine and amphotericin B were used as the standard anti-leishmanial agents. IC50 values were computed from dose-response curves as above. The tested compounds were diluted with six concentrations (from 40–0.0128 μg/mL). Cytotoxicity assay. The in vitro cytotoxicity was determined against human monocytic leukemia cells (THP1) with a simple colorimetric method using the dye Alamar Blue. […] Cells were grown to a density between 0.2 and 1 × 10^6 cells/mL. Culture medium was replaced every 2–3 days with fresh growth medium. DMSO was used as the solvent, and the test compounds was with six concentrations from 10–0.0032 μg/mL.
The in vitro cytotoxicity was determined against human monocytic leukemia cells (THP1) with a simple colorimetric method using the dye Alamar Blue, which was reported in the reference (Mikus, J.; Steverding, D. A simple colorimetric method to screen drug cytotoxicity against Leishmania, using the dye Alamar Blue. Parasitol Int. 2000, 48(3),265-269.). THP1 suspensions were grown in RPMI-1640 medium supplemented with 10% FBS, 2 mM glutamine, 50 μg/mL […]
were grown to a density between 0.2 and 1×10^6 cells/mL. Culture medium was replaced every 2-3 days with fresh growth medium. DMSO was used as the solvent, and the test compounds was with six concentrations from 10-0.0032μg/mL.

| SMILES | IC50 [1] [µg/mL] | SI [1] | CC50 [2] [µg/mL] | melting point [°C] | anti-leishmanial activity, times better than amphotericin B ([1]; L. donovani, relative to amphotericin B) |
| --- | --- | --- | --- | --- | --- |
| CCCCN1C(=O)C=CC1=O [Compound 1] | 0.08 (≈ 0.522 µM) | >125.0 | > 10 | – | – |
| CCCCCN1C(=O)C=CC1=O [Compound 2] | 0.36 (≈ 2.15 µM) | >27.8 | > 10 | – | – |
| CCCCCCN1C(=O)C=CC1=O [Compound 3] | 0.11 (≈ 0.607 µM) | >90.9 | > 10 | – | – |
| CCCCCCCCN1C(=O)C=CC1=O [Compound 4] | 0.27 (≈ 1.29 µM) | >37.0 | > 10 | – | – |
| CCCCCCCCCCCCN1C(=O)C=CC1=O [Compound 5] | 2.21 (≈ 8.33 µM) | >4.5 | > 10 | – | – |
| O=C1C=CC(=O)N1Cc1ccccc1 [Compound 6] | 0.08 (≈ 0.427 µM) | 57.0 | 4.56 (≈ 24.4 µM) | – | – |
| O=C1C=CC(=O)N1CCc1ccccc1 [Compound 7] | 0.1 (≈ 0.497 µM) | 41.3 | 4.13 (≈ 20.5 µM) | – | – |
| O=C1C=CC(=O)N1CCCc1ccccc1 [Compound 8] | 0.11 (≈ 0.511 µM) | 75.0 | 8.25 (≈ 38.3 µM) | – | – |
| O=C1C=CC(=O)N1c1ccccc1 [Compound 9] | 0.24 (≈ 1.39 µM) | >41.7 | > 10 | – | – |
| Cc1ccc(N2C(=O)C=CC2=O)cc1 [Compound 10] | 0.15 (≈ 0.801 µM) | >66.7 | > 10 | – | – |
| O=C1C=CC(=O)N1c1ccc(F)cc1 [Compound 11] | 0.32 (≈ 1.67 µM) | >31.3 | > 10 | – | – |
| O=C1C=CC(=O)N1c1ccc(Cl)cc1 [Compound 12] | 1.02 (≈ 4.91 µM) | >9.8 | > 10 | – | – |
| Cc1cccc(C)c1N1C(=O)C=CC1=O [Compound 13] | 0.1 (≈ 0.497 µM) | 36.5 | 3.65 (≈ 18.1 µM) | 188.8 to 190.4 | – |
| CCc1cccc(CC)c1N1C(=O)C=CC1=O [Compound 14] | 0.08 (≈ 0.349 µM) | 48.6 | 3.89 (≈ 17 µM) | 192.8 to 194.1 | – |
| O=C1C=CC(=O)N1c1cc(F)c(F)c(F)c1 [Compound 15] | 0.21 (≈ 0.925 µM) | – | > 10 | 153.4 to 165.6 | – |
| CC(C)CN1C(=O)C=CC1=O [Compound 16] | < 0.0128 | – | > 10 | 52.8 to 53.9 | 10 |
| O=C1C=CC(=O)N1C1CCCCC1 [Compound 17] | 0.26 (≈ 1.45 µM) | >38.5 | > 10 | – | – |
| CCCCCN1C(=O)C=C(C)C1=O [Compound 18] | 0.58 (≈ 3.2 µM) | 13.2 | 7.64 (≈ 42.2 µM) | – | – |
| CCCCCCN1C(=O)C=C(C)C1=O [Compound 19] | 0.81 (≈ 4.15 µM) | 7.3 | 5.89 (≈ 30.2 µM) | – | – |
| CCCCCCCCN1C(=O)C=C(C)C1=O [Compound 20] | 0.96 (≈ 4.3 µM) | 8.4 | 8.1 (≈ 36.3 µM) | – | – |
| CC1=CC(=O)N(Cc2ccccc2)C1=O [Compound 21] | 0.58 (≈ 2.88 µM) | 13.7 | 7.94 (≈ 39.5 µM) | – | – |
| CC1=CC(=O)N(CCc2ccccc2)C1=O [Compound 22] | 1.22 (≈ 5.67 µM) | 4.9 | 5.99 (≈ 27.8 µM) | – | – |
| CC1=CC(=O)N(c2c(C)cccc2C)C1=O [Compound 23] | 13.2 (≈ 61.2 µM) | >0.8 | > 10 | 190.8 to 192 | – |
| CCc1cccc(CC)c1N1C(=O)C=C(C)C1=O [Compound 24] | 0.55 (≈ 2.26 µM) | 8.0 | 4.39 (≈ 18 µM) | 195.8 to 197.3 | – |
